{"source": "ChEMBL document CHEMBL4376829", "about": "“Discovery and biological evaluation of vinylsulfonamide derivatives as highly potent, covalent TEAD autopalmitoylation inhibitors” (Eur J Med Chem, 2019)", "key": {"[1]": {"target": "T1, Transcriptional enhancer factor TEF-3 (Homo sapiens, UniProt Q15561)", "T1 sequence (Q15561 whole entry, the tested form may be a part)": "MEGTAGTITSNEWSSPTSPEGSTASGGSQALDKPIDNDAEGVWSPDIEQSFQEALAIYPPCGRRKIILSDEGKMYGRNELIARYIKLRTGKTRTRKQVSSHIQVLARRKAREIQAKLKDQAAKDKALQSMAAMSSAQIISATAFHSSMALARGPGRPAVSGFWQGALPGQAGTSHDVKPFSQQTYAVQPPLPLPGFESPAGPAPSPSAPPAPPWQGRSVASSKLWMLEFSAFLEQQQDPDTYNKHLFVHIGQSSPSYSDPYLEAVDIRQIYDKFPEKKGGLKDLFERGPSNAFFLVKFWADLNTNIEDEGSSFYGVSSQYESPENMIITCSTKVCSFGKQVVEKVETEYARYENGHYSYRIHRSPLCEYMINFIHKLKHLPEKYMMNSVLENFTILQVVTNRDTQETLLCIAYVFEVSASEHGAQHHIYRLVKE", "assay": "Inhibition of N-terminal His6 tagged human TEAD4-YBD (217 to 434 residues) expressed in Escherichia coli C43 (DE3) cells assessed as reduction in autopalmitoylation preincubated for 2 hrs followed by palmitoyl alkyne-coenzyme A addition and measured after 30 mins by immunoblot analysis"}, "[2]": {"target": "T1, Transcriptional enhancer factor TEF-3", "assay": "Binding affinity to N-terminal His6 tagged human TEAD4-YBD (217 to 434 residues) expressed in Escherichia coli C43 (DE3) cells assessed as covalent modification at Cys367 residue by HPLC-MS/MS analysis"}, "[3]": {"target": "Catenin beta-1 (Homo sapiens) (UniProt P35222)", "assay": "Inhibition of beta catenin (unknown origin) expressed in HEK293T cells at 10 to 20 uM by dual-TOPFlash reporter gene assay", "type": "cell-based"}, "[4]": {"target": "Serine/threonine-protein kinase PLK1 (Homo sapiens) (UniProt P53350)", "assay": "Inhibition of full length recombinant human Plk1 at 10 uM using casein as substrate after 40 mins in presence of [gamma33P]ATP by scintillation counting method relative to control"}, "[5]": {"target": "Tyrosine-protein kinase HCK (Homo sapiens) (UniProt P08631)", "assay": "Inhibition of recombinant human Hck activated (230 to 497 residues) at 10 uM using GGMEDIYFEFMGGKKK as substrate after 40 mins in presence of [gamma33P]ATP by scintillation counting method relative to control"}, "[6]": {"test_system": "eIF-2-alpha kinase GCN2 (Homo sapiens), Q9P2K8 [E556G]", "assay": "Inhibition of full length recombinant human GCN2 E556G mutant at 10 uM using RSRSRSRSRSRSRSR as substrate after 40 mins in presence of [gamma33P]ATP by scintillation counting method relative to control"}, "[7]": {"target": "Interferon-induced, double-stranded RNA-activated protein kinase (Homo sapiens) (UniProt P19525)", "sequence (P19525 whole entry)": "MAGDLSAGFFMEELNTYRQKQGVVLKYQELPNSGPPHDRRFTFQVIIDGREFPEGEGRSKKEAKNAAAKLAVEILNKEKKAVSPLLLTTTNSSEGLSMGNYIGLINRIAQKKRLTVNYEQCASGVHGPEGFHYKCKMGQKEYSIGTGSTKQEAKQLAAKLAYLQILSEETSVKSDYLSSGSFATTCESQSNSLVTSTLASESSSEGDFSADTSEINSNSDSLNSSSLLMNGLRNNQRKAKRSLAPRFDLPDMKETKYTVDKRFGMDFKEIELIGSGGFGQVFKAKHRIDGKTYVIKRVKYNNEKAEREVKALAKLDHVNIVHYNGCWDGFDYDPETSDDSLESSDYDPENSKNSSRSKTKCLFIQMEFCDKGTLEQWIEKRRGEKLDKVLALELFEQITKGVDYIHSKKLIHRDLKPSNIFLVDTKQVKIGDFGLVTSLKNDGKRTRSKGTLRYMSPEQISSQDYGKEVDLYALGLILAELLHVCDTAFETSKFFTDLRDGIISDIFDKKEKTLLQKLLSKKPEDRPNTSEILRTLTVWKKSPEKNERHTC", "assay": "Inhibition of recombinant human PKR (252 to end residues) at 10 uM using RSRSRSRSRSRSRSR as substrate measured after 40 mins in presence of [gamma33P]ATP by scintillation counting method relative to control"}, "[8]": {"test_system": "RAC-gamma serine/threonine-protein kinase (Homo sapiens), Q9Y243 [S472D]", "assay": "Inhibition of recombinant human PKBgamma S472D mutant (117 to end residues) at 10 uM using GRPRTSSFAEGKK as substrate after 40 mins by in presence of [gamma33P]ATP by scintillation counting method relative to control"}, "[9]": {"target": "Phosphorylase b kinase gamma catalytic chain, skeletal muscle/heart isoform (Homo sapiens) (UniProt Q16816)", "assay": "Inhibition of full-length recombinant human PHKgamma1 at 10 uM using KKLNRTLSFAEPG as substrate after 120 mins by in presence of [gamma33P]ATP by scintillation counting method relative to control"}, "[10]": {"target": "Eukaryotic translation initiation factor 2-alpha kinase 3 (Homo sapiens) (UniProt Q9NZJ5)", "sequence (Q9NZJ5 whole entry)": "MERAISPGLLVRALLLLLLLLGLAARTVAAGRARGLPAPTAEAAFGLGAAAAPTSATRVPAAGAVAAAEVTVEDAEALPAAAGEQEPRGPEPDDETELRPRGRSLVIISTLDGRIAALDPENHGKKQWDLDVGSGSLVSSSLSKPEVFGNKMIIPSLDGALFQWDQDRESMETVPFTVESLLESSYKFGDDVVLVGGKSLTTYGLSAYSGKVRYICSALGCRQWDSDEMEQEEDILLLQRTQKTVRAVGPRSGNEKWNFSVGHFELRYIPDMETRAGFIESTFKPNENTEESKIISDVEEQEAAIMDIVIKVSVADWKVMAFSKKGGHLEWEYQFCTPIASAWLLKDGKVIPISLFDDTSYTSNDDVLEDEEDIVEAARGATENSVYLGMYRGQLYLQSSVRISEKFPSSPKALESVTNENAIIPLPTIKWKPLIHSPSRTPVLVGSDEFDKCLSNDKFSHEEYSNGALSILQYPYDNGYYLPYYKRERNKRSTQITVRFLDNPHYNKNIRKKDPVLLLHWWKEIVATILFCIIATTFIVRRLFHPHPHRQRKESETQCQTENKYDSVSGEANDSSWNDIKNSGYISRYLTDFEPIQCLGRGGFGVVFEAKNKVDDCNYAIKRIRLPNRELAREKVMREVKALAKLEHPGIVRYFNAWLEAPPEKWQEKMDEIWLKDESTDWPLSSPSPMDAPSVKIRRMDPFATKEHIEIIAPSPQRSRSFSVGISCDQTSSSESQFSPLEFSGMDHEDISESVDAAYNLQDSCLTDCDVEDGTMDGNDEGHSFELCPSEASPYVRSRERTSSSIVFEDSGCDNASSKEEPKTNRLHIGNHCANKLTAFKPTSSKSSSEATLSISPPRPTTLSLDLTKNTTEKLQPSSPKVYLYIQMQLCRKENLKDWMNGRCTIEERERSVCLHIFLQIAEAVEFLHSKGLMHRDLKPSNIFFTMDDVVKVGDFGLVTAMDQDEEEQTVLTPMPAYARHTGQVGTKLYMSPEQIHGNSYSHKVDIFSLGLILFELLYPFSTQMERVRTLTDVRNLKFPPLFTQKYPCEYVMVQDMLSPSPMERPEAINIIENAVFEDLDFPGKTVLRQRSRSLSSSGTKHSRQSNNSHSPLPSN", "assay": "Inhibition of recombinant human PEK (536 to end residues) at 10 uM using RSRSRSRSRSRSRSR as substrate measured after 40 mins in presence of [gamma33P]ATP by scintillation counting method relative to control"}, "[11]": {"species_on_record": "Homo sapiens", "assay": "Inhibition of recombinant human EphB2 A848S/K918E mutant (560 to end residues) using poly (Glu, Tyr) 4:1 as substrate at 10 uM after 40 mins in presence of [gamma-33P]-ATP by scintillation counting relative to control"}, "[12]": {"target": "Serine/threonine-protein kinase 17A (Homo sapiens) (UniProt Q9UEE5)", "assay": "Inhibition of full-length recombinant human DRAK1 at 10 uM using KKLNRTLSFAEPG as substrate after 40 mins by in presence of [gamma33P]ATP by scintillation counting method relative to control"}, "[13]": {"target": "Death-associated protein kinase 1 (Homo sapiens) (UniProt P53355)", "assay": "Inhibition of recombinant human DAPK1 (1 to 296 residues) at 10 uM using KKLNRTLSFAEPG as substrate after 40 mins by in presence of [gamma33P]ATP by scintillation counting method relative to control"}, "[14]": {"target": "Proto-oncogene tyrosine-protein kinase Src (Homo sapiens) (UniProt P12931)", "assay": "Inhibition of recombinant full length human cSRC at 10 uM using KVEKIGEGTYGVVYK as substrate measured after 40 mins in presence of [gamma33P]ATP by scintillation counting method relative to control"}, "[15]": {"test_system": "Ribosomal protein S6 kinase beta-1 (Homo sapiens), P23443 [T412E]", "sequence (P23443 whole entry T412E, looked up, the tested form may be a part)": "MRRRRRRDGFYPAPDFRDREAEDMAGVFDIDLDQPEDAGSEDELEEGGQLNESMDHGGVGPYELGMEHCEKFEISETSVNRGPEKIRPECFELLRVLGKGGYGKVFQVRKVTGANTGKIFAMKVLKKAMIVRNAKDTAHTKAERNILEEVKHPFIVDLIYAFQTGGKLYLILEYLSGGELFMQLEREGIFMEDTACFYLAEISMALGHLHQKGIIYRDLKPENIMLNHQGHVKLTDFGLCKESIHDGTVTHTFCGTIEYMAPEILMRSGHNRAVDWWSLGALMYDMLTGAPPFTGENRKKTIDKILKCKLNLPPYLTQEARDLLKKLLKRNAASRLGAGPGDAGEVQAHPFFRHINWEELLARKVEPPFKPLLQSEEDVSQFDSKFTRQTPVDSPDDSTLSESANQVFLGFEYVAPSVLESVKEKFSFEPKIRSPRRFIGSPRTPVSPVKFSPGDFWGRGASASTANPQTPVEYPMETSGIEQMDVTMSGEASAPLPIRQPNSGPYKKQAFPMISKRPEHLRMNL", "assay": "Inhibition of recombinant human p70S6K T412E mutant (1 to 421 residues) at 10 uM using KKRNRTLTV as substrate measured after 40 mins in presence of [gamma33P]ATP by scintillation counting method relative to control"}, "[16]": {"target": "Serine/threonine-protein kinase NLK (Homo sapiens) (UniProt Q9UBE8)", "sequence (Q9UBE8 whole entry)": "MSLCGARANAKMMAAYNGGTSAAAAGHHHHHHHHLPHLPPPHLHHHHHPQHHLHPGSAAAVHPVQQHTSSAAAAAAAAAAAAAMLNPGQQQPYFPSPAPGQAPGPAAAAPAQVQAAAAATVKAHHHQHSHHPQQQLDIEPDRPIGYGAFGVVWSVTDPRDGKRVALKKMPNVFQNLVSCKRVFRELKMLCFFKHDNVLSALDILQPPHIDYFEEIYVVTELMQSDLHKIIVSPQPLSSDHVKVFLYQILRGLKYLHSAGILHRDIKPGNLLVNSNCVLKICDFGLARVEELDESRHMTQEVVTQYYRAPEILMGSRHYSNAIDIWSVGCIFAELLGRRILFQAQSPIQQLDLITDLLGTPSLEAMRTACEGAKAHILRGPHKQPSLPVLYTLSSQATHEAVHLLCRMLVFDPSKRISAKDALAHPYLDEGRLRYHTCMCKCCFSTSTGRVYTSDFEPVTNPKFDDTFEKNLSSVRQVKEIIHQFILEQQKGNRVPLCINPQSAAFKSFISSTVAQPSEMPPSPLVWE", "assay": "Inhibition of recombinant human NLK (121 to end residues) at 10 uM using myelin basic protein as substrate measured after 40 mins in presence of [gamma33P]ATP by scintillation counting method relative to control"}, "[17]": {"target": "Myosin light chain kinase 2, skeletal/cardiac muscle (Homo sapiens) (UniProt Q9H1R3)", "assay": "Inhibition of recombinant full-length human MYLK2 at 10 uM using KKLNRTLSFAEPG as substrate measured after 40 mins in presence of [gamma33P]ATP by scintillation counting method relative to control"}, "[18]": {"target": "Serine/threonine-protein kinase 3 (Homo sapiens) (UniProt Q13188)", "assay": "Inhibition of recombinant full-length human MST2 (2 to end residues) at 10 uM using myelin basic protein as substrate measured after 40 mins in presence of [gamma33P]ATP by scintillation counting method relative to control"}, "[19]": {"target": "Cyclin-dependent kinase 1/cyclin B1 (Homo sapiens) (UniProt P06493+P14635)", "sequence (P06493 whole entry, looked up)": "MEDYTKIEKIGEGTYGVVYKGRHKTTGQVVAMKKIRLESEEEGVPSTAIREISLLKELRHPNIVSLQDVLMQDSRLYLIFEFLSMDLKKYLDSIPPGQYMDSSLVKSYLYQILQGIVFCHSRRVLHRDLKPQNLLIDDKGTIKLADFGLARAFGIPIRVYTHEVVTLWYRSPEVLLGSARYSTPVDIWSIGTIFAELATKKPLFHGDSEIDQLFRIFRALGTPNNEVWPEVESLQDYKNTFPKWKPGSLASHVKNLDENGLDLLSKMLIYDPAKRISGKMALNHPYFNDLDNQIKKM", "sequence (P14635 whole entry, looked up)": "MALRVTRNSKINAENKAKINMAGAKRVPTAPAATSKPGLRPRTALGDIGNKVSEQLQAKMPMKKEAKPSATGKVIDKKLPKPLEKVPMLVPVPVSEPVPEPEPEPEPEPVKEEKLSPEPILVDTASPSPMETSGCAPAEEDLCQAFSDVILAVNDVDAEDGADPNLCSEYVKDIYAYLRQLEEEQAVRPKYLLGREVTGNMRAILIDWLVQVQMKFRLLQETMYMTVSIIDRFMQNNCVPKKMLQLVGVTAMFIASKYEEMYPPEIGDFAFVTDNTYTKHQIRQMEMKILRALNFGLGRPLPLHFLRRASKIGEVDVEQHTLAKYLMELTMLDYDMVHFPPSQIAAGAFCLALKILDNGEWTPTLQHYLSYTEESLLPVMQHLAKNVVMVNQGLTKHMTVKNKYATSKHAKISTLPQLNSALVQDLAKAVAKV", "assay": "Inhibition of full-length recombinant human CDK1/cyclinB at 10 uM using histone H1 as substrate after 40 mins by in presence of [gamma33P]ATP by scintillation counting method relative to control", "type": "protein-complex assay"}, "[20]": {"target": "Calcium/calmodulin-dependent protein kinase type 1 (Homo sapiens) (UniProt Q14012)", "sequence (Q14012 whole entry, looked up)": "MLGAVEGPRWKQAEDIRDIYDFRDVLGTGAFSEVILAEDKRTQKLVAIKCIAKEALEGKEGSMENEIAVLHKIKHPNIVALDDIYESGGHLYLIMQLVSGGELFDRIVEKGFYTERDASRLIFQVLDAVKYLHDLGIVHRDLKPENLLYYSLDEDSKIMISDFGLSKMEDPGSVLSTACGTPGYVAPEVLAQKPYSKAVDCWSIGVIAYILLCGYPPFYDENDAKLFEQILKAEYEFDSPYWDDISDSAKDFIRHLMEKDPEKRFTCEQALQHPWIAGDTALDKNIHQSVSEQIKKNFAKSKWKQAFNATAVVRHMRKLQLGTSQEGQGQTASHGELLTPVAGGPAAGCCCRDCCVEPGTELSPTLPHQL", "assay": "Inhibition of recombinant full length human CAMK1 (2 to end residues) at 10 uM using […] as substrate incubated for 40 mins in presence of [gamma-33P]-ATP by scintillation counting method relative to control"}, "[21]": {"target": "Tyrosine-protein kinase BTK (Homo sapiens) (UniProt Q06187)", "assay": "Inhibition of full-length recombinant human BTK at 10 uM using KVEKIGEGTYGVVYK as substrate measured after 40 mins in presence of [gamma33P]ATP by scintillation counting method relative to control"}, "[22]": {"target": "Mitogen-activated protein kinase kinase kinase 5 (Homo sapiens) (UniProt Q99683)", "assay": "Inhibition of recombinant human ASK1 (649 to 946 residues) at 10 uM using myelin basic protein as substrate measured after 40 mins in presence of [gamma33P]ATP by scintillation counting method relative to control"}, "[23]": {"target": "Tyrosine-protein kinase ZAP-70 (Homo sapiens) (UniProt P43403)", "sequence (P43403 whole entry)": "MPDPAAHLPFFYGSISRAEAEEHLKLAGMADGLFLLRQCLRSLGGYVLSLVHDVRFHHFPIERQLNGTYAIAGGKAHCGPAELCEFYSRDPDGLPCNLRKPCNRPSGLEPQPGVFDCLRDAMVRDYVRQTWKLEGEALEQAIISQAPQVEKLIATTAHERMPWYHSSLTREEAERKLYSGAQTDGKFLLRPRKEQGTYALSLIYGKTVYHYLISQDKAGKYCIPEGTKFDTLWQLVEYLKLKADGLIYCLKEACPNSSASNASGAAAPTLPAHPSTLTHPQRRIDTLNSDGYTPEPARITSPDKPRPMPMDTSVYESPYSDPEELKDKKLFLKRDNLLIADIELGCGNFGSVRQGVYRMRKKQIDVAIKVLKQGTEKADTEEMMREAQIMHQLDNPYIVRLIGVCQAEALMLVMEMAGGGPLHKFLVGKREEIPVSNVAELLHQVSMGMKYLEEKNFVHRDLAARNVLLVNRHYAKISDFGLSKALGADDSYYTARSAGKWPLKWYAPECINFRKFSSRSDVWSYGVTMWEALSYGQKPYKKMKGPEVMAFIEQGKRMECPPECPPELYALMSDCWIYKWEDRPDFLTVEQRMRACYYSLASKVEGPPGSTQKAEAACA", "assay": "Inhibition of recombinant full-length human ZAP70 at 10 uM using poly(Glu, Tyr) 4:1 as substrate measured after 40 mins in presence of [gamma33P]ATP by scintillation counting method5 relative to control"}}, "note": "The source made the active and inactive calls. No cut-off for these calls is given here."}
{"smiles": "C=CS(=O)(=O)Nc1ccc(Cc2ccc3ccccc3c2)cc1", "values": [{"measurement": "IC50", "setting": "[1]", "value": 197, "unit": "nM"}, {"measurement": "Activity", "setting": "[2]", "value": "Active"}, {"measurement": "inhibition", "setting": "[3]", "value": "inactive"}, {"measurement": "inhibition", "setting": "[4]", "value": -10, "unit": "%"}, {"measurement": "inhibition", "setting": "[5]", "value": 3, "unit": "%"}, {"measurement": "inhibition", "setting": "[6]", "value": 3, "unit": "%"}, {"measurement": "inhibition", "setting": "[7]", "value": -8, "unit": "%"}, {"measurement": "inhibition", "setting": "[8]", "value": 8, "unit": "%"}, {"measurement": "inhibition", "setting": "[9]", "value": -3, "unit": "%"}, {"measurement": "inhibition", "setting": "[10]", "value": -1, "unit": "%"}, {"measurement": "inhibition", "setting": "[11]", "value": 4, "unit": "%"}, {"measurement": "inhibition", "setting": "[12]", "value": -1, "unit": "%"}, {"measurement": "inhibition", "setting": "[13]", "value": 8, "unit": "%"}, {"measurement": "inhibition", "setting": "[14]", "value": -4, "unit": "%"}, {"measurement": "inhibition", "setting": "[15]", "value": 9, "unit": "%"}, {"measurement": "inhibition", "setting": "[16]", "value": 2, "unit": "%"}, {"measurement": "inhibition", "setting": "[17]", "value": 6, "unit": "%"}, {"measurement": "inhibition", "setting": "[18]", "value": 2, "unit": "%"}, {"measurement": "inhibition", "setting": "[19]", "value": 4, "unit": "%"}, {"measurement": "inhibition", "setting": "[20]", "value": 6, "unit": "%"}, {"measurement": "inhibition", "setting": "[21]", "value": 5, "unit": "%"}, {"measurement": "inhibition", "setting": "[22]", "value": 13, "unit": "%"}, {"measurement": "inhibition", "setting": "[23]", "value": 5, "unit": "%"}]}
